Test results reported in US20240224993A1, “ANTIMICROBIAL COMPOSITIONS” (GOJO Industries, Inc., priority 2009, published 2024).

Legend:
[1] = tested on: S. aureus #6538; experiment: ASTM E 2315 time-kill procedure, S. aureus; assay type: cell-based; settings: contact time 15 seconds
Protocol: (§1) In vitro efficacy of these compositions was measured against E. coli, S. aureus, E. faecium, S. marcescens, S. aureus (MRSA), P. mirabilis, K. pneumoniae, and S. epidermidis. The test was conducted according to the ASTM E 2315 method, “Standard Guide for Assessment of Antimicrobial Activity Using a Time-Kill Procedure.” Contact time was 15 seconds.
(§2) In vitro efficacy of these compositions was measured against S. marcescen, and S. aureus. The test was conducted according to the ASTM E 2315 method, “Standard Guide for Assessment of Antimicrobial Activity Using a Time-Kill Procedure.” Contact time was 15 seconds.

[2] = tested on: S. marcescens #14756; experiment: ASTM E 2315 time-kill procedure, S. marcescens; assay type: cell-based; settings: contact time 15 seconds
Protocol: as §1, §2

[3] = 0.5 wt. % diol, 0 wt. % ethanol
[4] = 0.5 wt. % diol, 15 wt. % ethanol
[5] = 0.5 wt. % diol, 30 wt. % ethanol
[6] = 1.0 wt. % diol, 0 wt. % ethanol
[7] = 1.0 wt. % diol, 15 wt. % ethanol
[8] = 1.0 wt. % diol, 30 wt. % ethanol

Row | SMILES | Log Reduction-S. aureus #6538 [1, 3] [log] | Log Reduction-S. aureus #6538 [1, 4] [log] | Log Reduction-S. aureus #6538 [1, 5] [log] | Log Reduction-S. aureus #6538 [1, 6] [log] | Log Reduction-S. aureus #6538 [1, 7] [log] | Log Reduction-S. aureus #6538 [1, 8] [log] | Log Reduction-S. marcescens #14756 [2, 3] [log] | Log Reduction-S. marcescens #14756 [2, 4] [log] | Log Reduction-S. marcescens #14756 [2, 5] [log] | Log Reduction-S. marcescens #14756 [2, 6] [log] | Log Reduction-S. marcescens #14756 [2, 7] [log] | Log Reduction-S. marcescens #14756 [2, 8] [log] | Log Reduction-S. aureus #6538 ([1]; 0 wt. % diol, 30 wt. % ethanol) [log] | Log Reduction-S. marcescens #14756 ([2]; 0 wt. % diol, 30 wt. % ethanol) [log]
1 | CCCCCCC(O)CO (centres unmarked) [1,2-octanediol] | 0 | 0.2 | 0.1 | 0.2 | 2.6 | 0.9 | 0.3 | 0.1 | >5.1 | 3.5 | 2.3 | >5.1 |  | 
2 | CCO [ethanol] |  |  |  |  |  |  |  |  |  |  |  |  | 0 | 0.45
